From patent US8440442B2, “Method of assaying 5-FU” (Myriad Genetics, Inc, priority 2009, dated 2013)

Biological target: T1, dihydropyrimidine dehydrogenase (DPD) (Homo sapiens, UniProt Q12882)
T1 construct: from tissue; host or cells: donor whole blood (K2EDTA), plasma separated from it, and WBC/buffy coat
T1 sequence (Q12882 4-1025): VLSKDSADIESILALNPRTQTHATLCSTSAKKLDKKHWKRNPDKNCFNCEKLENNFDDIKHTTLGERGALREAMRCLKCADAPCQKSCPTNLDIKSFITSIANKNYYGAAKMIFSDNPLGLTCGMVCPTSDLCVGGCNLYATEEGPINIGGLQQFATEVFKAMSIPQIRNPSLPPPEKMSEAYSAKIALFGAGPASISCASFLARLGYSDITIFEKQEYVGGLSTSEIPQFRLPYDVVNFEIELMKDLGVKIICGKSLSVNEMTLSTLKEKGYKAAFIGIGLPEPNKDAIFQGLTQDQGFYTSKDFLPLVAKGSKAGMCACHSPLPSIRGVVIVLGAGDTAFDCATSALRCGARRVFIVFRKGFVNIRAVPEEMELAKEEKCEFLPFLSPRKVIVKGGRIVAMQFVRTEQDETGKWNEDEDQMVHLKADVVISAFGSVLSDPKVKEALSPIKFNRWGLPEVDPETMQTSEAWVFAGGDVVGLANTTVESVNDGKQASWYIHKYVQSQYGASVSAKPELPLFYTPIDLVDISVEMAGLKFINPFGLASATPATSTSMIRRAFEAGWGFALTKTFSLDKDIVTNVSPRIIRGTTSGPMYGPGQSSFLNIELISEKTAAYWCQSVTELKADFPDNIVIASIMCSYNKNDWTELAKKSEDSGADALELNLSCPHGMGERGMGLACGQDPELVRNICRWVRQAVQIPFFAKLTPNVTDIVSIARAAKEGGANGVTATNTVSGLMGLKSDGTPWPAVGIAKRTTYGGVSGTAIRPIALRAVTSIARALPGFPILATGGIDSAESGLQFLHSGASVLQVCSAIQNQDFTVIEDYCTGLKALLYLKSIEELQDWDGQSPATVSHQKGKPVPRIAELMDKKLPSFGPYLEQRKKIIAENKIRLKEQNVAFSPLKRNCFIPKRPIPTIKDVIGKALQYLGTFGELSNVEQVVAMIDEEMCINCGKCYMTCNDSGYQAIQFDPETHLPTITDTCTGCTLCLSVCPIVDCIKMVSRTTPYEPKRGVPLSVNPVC
Assay: 5-Vinyluracil, 5-iodouracil and gimeracil as stabilizer of 5-FU in spiked donor blood
Type: biochemical
Conditions: 500 ng/mL 5-FU; 5-iodouracil 10/40 μg/mL, 5-vinyluracil 5/20 μg/mL, gimeracil 300/1,200 ng/mL; 45 minutes room temperature (FIG. 3)
Procedure: In the following illustrative examples, 5-FU was measured using an antibody-based agglutination assay on the Olympus AU680 Analyzer using an antibody disclosed in U.S. Pat. No. 7,205,116. Specifically, the concentration of 5-FU in a sample is determined based on the absorbance of a sample, which is determined by the amount of aggregation by the nanoparticles. The system requires two reagents, which when mixed in the absence of free 5-FU will form large aggregates of nanoparticles and scatter light to result in a higher absorption value. In the presence of free 5-FU, the agglutination reaction becomes somewhat inhibited and scattering of light is less, causing a lower absorption value. The instrument is calibrated twice monthly, and a curve is generated (Absorbance vs. 5-FU concentration). Absorbance values from individual samples are compared against this curve to determine concentration.
Generally in the agglutination assay, 95 μl of a buffer containing 5-FU-labeled amino-dextran is pipetted to a cuvette, followed by 7 μL of a filtered plasma sample. The sample and reagent are mixed and then incubated for about 3.5 minutes. 95 μl of 5-FU antibody-conjugated nanoparticles is pipetted into the cuvette and mixed. The complete reaction incubates for about 6.2 minutes. A series of 27 measurements at 600 nm are taken at regular intervals by the AU680 analyzer throughout this process, and 5-FU concentration is calculated using the measurements from two specific time points.
Three tubes of blood (spray-on K2EDTA tubes, 10 mL) was drawn from each of six donors, and blood tubes were gently inverted several times to mix anti-coagulant. Blood was pooled and kept separate by donor. An aliquot of each blood sample was transferred to a new conical tube, and a calculated volume of stock 5-FU (at 200 ng/μL) was spiked into each blood sample for a final concentration of 500 ng/mL 5-FU. Each blood sample was aliquotted to a set of four tubes (5 mL blood per tube). Each set of tubes was different, but included a combination of the conditions below: […]

Structure (SMILES): Oc1cc(O)c(Cl)cn1 [Gimeracil, 5-chloro-2,4-dihydroxypyridine]
- stabilizing 5-FU in blood samples: effective
